# According to ChEMBL document CHEMBL3044552, “Synthesis and biological evaluation of 1-(3-chloro-2-oxo-4-phenylazetidin-1-yl)-3-(2-oxo-2-(10H-phenothiazin-10-yl)ethyl)urea derivatives” (Med Chem Res, 2013):
# Activity calls are given as the source filed them. The rule behind the calls is not given here.
# Tests used:
# [1] = test system: Vibrio cholerae; test: Antibacterial activity against Vibrio cholerae after 24 hr by disk diffusion method; assay type: functional
# [2] = test system: Salmonella paratyphi; test: Antibacterial activity against Salmonella enterica subsp. enterica serovar Paratyphi A after 24 hr by disk diffusion method; assay type: functional
# [3] = test system: Bacillus subtilis; test: Antibacterial activity against Bacillus subtilis after 18 hr by serial dilution method; assay type: functional
# [4] = test system: Bacillus subtilis; test: Antibacterial activity against Bacillus subtilis after 24 hr by disk diffusion method; assay type: functional
# [5] = test system: Staphylococcus aureus; test: Antibacterial activity against Staphylococcus aureus after 24 hr by disk diffusion method; assay type: functional
# [6] = test system: Staphylococcus aureus; test: Antibacterial activity against Staphylococcus aureus after 18 hr by serial dilution method; assay type: functional
# [7] = test system: Mycobacterium tuberculosis; test: Growth inhibition of Mycobacterium tuberculosis H37Rv at 10 ug/ml after 7 days by resazurin microplate assay; assay type: functional, organism-based
# [8] = test system: Escherichia coli; test: Antibacterial activity against Escherichia coli after 18 hr by serial dilution method; assay type: functional
# [9] = test system: Staphylococcus epidermidis; test: Antibacterial activity against Staphylococcus albus after 18 hr by serial dilution method; assay type: functional
# [10] = test system: Monascus purpureus; test: Antifungal activity against Monascus purpureus after 18 hr by serial dilution method; assay type: functional
# [11] = test system: Pseudomonas aeruginosa; test: Antibacterial activity against Pseudomonas aeruginosa after 18 hr by serial dilution method; assay type: functional
# [12] = test system: Trichophyton rubrum; test: Antifungal activity against Trichophyton rubrum after 24 hr by disk diffusion method; assay type: functional
# [13] = test system: Mycobacterium tuberculosis; test: Growth inhibition of Mycobacterium tuberculosis H37Rv at 100 ug/ml after 7 days by resazurin microplate assay; assay type: functional, organism-based
# [14] = test system: Candida albicans; test: Antifungal activity against Candida albicans after 18 hr by serial dilution method; assay type: functional
# [15] = test system: Candida albicans; test: Antifungal activity against Candida albicans after 24 hr by disk diffusion method; assay type: functional
# [16] = test system: Vibrio cholerae; test: Antibacterial activity against Vibrio cholerae after 18 hr by serial dilution method; assay type: functional
# [17] = test system: Aspergillus niger; test: Antifungal activity against Aspergillus niger after 24 hr by disc diffusion method; assay type: functional
# [18] = test system: Escherichia coli; test: Antibacterial activity against Escherichia coli after 24 hr by disc diffusion method; assay type: functional
# [19] = test system: Aspergillus niger; test: Antifungal activity against Aspergillus niger after 18 hr by serial dilution method; assay type: functional
# [20] = test system: Mycobacterium tuberculosis; test: Growth inhibition of Mycobacterium tuberculosis H37Rv at 1 ug/ml after 7 days by resazurin microplate assay; assay type: functional, organism-based
# [21] = test system: Salmonella paratyphi; test: Antibacterial activity against Salmonella enterica subsp. enterica serovar Paratyphi A after 18 hr by serial dilution method; assay type: functional
# [22] = test system: Micrococcus luteus; test: Antibacterial activity against Micrococcus luteus after 18 hr by serial dilution method; assay type: functional
# [23] = test system: Staphylococcus epidermidis; test: Antibacterial activity against Staphylococcus albus after 24 hr by disk diffusion method; assay type: functional
# [24] = test system: Pseudomonas aeruginosa; test: Antibacterial activity against Pseudomonas aeruginosa after 24 hr by disc diffusion method; assay type: functional
# [25] = test system: Monascus purpureus; test: Antifungal activity against Monascus purpureus after 24 hr by disk diffusion method; assay type: functional
# [26] = test system: Trichophyton rubrum; test: Antifungal activity against Trichophyton rubrum after 18 hr by serial dilution method; assay type: functional
# [27] = test system: Micrococcus luteus; test: Antibacterial activity against Micrococcus luteus after 24 hr by disk diffusion method; assay type: functional
# [28] = test system: HeLa; test: Growth inhibition of Homo sapiens (human) HeLa cells at 6.25 uM after 48 hr by MTT assay; assay type: functional; conditions: read-out: GI
# [29] = test system: HeLa; test: Growth inhibition of Homo sapiens (human) HeLa cells at 25 uM after 48 hr by MTT assay; assay type: functional; conditions: read-out: GI
# [30] = test system: HeLa; test: Cytotoxicity against Homo sapiens (human) HeLa cells after 48 hr by MTT assay; assay type: functional, cell-based
# [31] = test system: HeLa; test: Growth inhibition of Homo sapiens (human) HeLa cells at 12.5 uM after 48 hr by MTT assay; assay type: functional; conditions: read-out: GI
# [32] = test system: HeLa; test: Growth inhibition of Homo sapiens (human) HeLa cells at 50 uM after 48 hr by MTT assay; assay type: functional; conditions: read-out: GI
# [33] = test system: HeLa; test: Growth inhibition of Homo sapiens (human) HeLa cells at 100 uM after 48 hr by MTT assay; assay type: functional; conditions: read-out: GI
# [34] = Antioxidant activity assessed as reduction of ferric ion after 30 min by spectrophotometric analysis; assay type: functional
# [35] = test system: Radical scavenging activity; test: Antioxidant activity assessed as DPPH radical scavenging activity after 30 min by spectrophotometric analysis; assay type: functional
Compound,diameter of the inhibition zone (DIZ) [1] [mm],diameter of the inhibition zone (DIZ) [2] [mm],MIC [3] [µg/mL],diameter of the inhibition zone (DIZ) [4] [mm],diameter of the inhibition zone (DIZ) [5] [mm],MIC [6] [µg/mL],MIC [8] [µg/mL],MIC [9] [µg/mL],MIC [10] [µg/mL],MIC [11] [µg/mL],diameter of the inhibition zone (DIZ) [12] [mm],MIC [14] [µg/mL],MIC [16] [µg/mL],diameter of the inhibition zone (DIZ) [17] [mm],MIC [19] [µg/mL],MIC [21] [µg/mL],MIC [22] [µg/mL],diameter of the inhibition zone (DIZ) [23] [mm],diameter of the inhibition zone (DIZ) [24] [mm],diameter of the inhibition zone (DIZ) [25] [mm],also measured
O=C(NCC(=O)N1c2ccccc2Sc2ccccc21)NN1C(=O)C(Cl)C1c1cccc(Cl)c1 (configuration not stated),8,10,125,11,7,250,500,125,250,125,6,62.5,250,7,250,125,250,11,10,7,growth inhibition (GI) [7]: Active; growth inhibition (GI) [13]: Active; diameter of the inhibition zone (DIZ) [15]: 12 mm; diameter of the inhibition zone (DIZ) [18]: 5 mm; growth inhibition (GI) [20]: inactive; MIC [26]: 250 µg/mL; diameter of the inhibition zone (DIZ) [27]: 5 mm
O=C(NCC(=O)N1c2ccccc2Sc2ccccc21)NN1C(=O)C(Cl)C1c1ccc(O)cc1 (configuration not stated),9,12,125,10,9,125,250,125,500,62.5,8,62.5,125,8,62.5,62.5,62.5,13,18,10,inhibition of growth at 6.25 µM [28]: 0.123%; inhibition of growth at 25 µM [29]: 19.1%; IC50 [30]: 84.1 µM; inhibition of growth at 12.5 µM [31]: 5.04%; diameter of the inhibition zone (DIZ) [15]: 13 mm; inhibition of growth at 50 µM [32]: 37.4%; diameter of the inhibition zone (DIZ) [18]: 5 mm; inhibition of growth at 100 µM [33]: 53%; MIC [26]: 250 µg/mL; diameter of the inhibition zone (DIZ) [27]: 12 mm
O=C(NCC(=O)N1c2ccccc2Sc2ccccc21)NN1C(=O)C(Cl)C1c1cccc(F)c1 (configuration not stated),9,10,62.5,11,7,250,250,125,125,125,7,125,125,7,250,125,250,11,11,10,Activity [34]: Active; diameter of the inhibition zone (DIZ) [15]: 11 mm; diameter of the inhibition zone (DIZ) [18]: 6 mm; EC50 [35]: 47 µg/mL; MIC [26]: 125 µg/mL; diameter of the inhibition zone (DIZ) [27]: 7 mm
Clc1ccccc1C(c1ccccc1)(c1ccccc1)n1ccnc1 [CLOTRIMAZOLE],,,,,,,,,62.5,,22,62.5,,4,125,,,,,20,MIC [26]: 62.5 µg/mL
CO[C@H]1/C=C/O[C@@]2(C)Oc3c(C)c(O)c4c(O)c(c(/C=N/N5CCN(C)CC5)c(O)c4c3C2=O)NC(=O)/C(C)=C\C=C\[C@H](C)[C@H](O)[C@@H](C)[C@@H](O)[C@@H](C)[C@H](OC(C)=O)[C@@H]1C,,,,,,,,,,,,,,,,,,,,,growth inhibition (GI) [7]: Active; growth inhibition (GI) [20]: Active
O=C1O[C@H]([C@@H](O)CO)C(O)=C1O [ASCORBIC ACID],,,,,,,,,,,,,,,,,,,,,EC50 [35]: 40 µg/mL
COc1ccc(C2C(Cl)C(=O)N2NC(=O)NCC(=O)N2c3ccccc3Sc3ccccc32)cc1 (configuration not stated),9,8,250,7,5,250,125,62.5,250,125,6,250,125,10,125,125,250,10,7,6,diameter of the inhibition zone (DIZ) [15]: 7 mm; diameter of the inhibition zone (DIZ) [18]: 8 mm; MIC [26]: 250 µg/mL; diameter of the inhibition zone (DIZ) [27]: 7 mm
COc1cc(C2C(Cl)C(=O)N2NC(=O)NCC(=O)N2c3ccccc3Sc3ccccc32)ccc1O (configuration not stated),10,10,250,6,7,250,125,250,250,125,4,125,125,5,250,125,250,5,10,7,diameter of the inhibition zone (DIZ) [15]: 10 mm; diameter of the inhibition zone (DIZ) [18]: 10 mm; MIC [26]: 250 µg/mL; diameter of the inhibition zone (DIZ) [27]: 8 mm
O=C(NCC(=O)N1c2ccccc2Sc2ccccc21)NN1C(=O)C(Cl)C1c1ccccc1Cl (configuration not stated),6,12,250,7,4,500,250,250,125,250,10,62.5,250,8,125,125,250,5,7,10,Activity [34]: Active; diameter of the inhibition zone (DIZ) [15]: 12 mm; diameter of the inhibition zone (DIZ) [18]: 8 mm; EC50 [35]: 57 µg/mL; MIC [26]: 125 µg/mL; diameter of the inhibition zone (DIZ) [27]: 7 mm
CN(C)c1ccc(C2C(Cl)C(=O)N2NC(=O)NCC(=O)N2c3ccccc3Sc3ccccc32)cc1 (configuration not stated),8,6,125,8,8,125,250,125,250,62.5,7,250,125,8,125,250,250,8,12,7,growth inhibition (GI) [7]: inactive; growth inhibition (GI) [13]: Active; Activity [34]: Active; diameter of the inhibition zone (DIZ) [15]: 7 mm; diameter of the inhibition zone (DIZ) [18]: 7 mm; EC50 [35]: 55 µg/mL; growth inhibition (GI) [20]: inactive; MIC [26]: 250 µg/mL; diameter of the inhibition zone (DIZ) [27]: 5 mm
FERROUS SULFATE,,,,,,,,,,,,,,,,,,,,,Activity [34]: Active
O=C(O)c1cn(C2CC2)c2cc(N3CCNCC3)c(F)cc2c1=O [CIPROFLOXACIN],15,18,62.5,25,20,62.5,62.5,62.5,,62.5,,,125,,,125,125,23,22,,diameter of the inhibition zone (DIZ) [27]: 16 mm
